The results in this text go back to patent US6514952B1, “Hydantoin derivatives as inhibitors of leucocyte adhesion and as VLA-4 antagonists” (Hoechst Aktiengesellschaft, priority 1996, dated 2003).

Each structure is given as a SMILES string.

The term IC50 denotes the point on the concentration scale where inhibition reaches its midpoint.

The target in this assay is T1, interaction between VCAM-1 and VLA-4 (Homo sapiens, UniProt P05556+P13612).
T1 construct: the VLA-4-integrins, are offered in their natural form as surface molecules on human U937 cells; host or cells: U937 cells (VLA-4, endogenous); hVCAM-1(1-3)-IgG from supernatant of transfected COS cells (ATCC CRL1651)
T1 sequence (P13612 34-1032): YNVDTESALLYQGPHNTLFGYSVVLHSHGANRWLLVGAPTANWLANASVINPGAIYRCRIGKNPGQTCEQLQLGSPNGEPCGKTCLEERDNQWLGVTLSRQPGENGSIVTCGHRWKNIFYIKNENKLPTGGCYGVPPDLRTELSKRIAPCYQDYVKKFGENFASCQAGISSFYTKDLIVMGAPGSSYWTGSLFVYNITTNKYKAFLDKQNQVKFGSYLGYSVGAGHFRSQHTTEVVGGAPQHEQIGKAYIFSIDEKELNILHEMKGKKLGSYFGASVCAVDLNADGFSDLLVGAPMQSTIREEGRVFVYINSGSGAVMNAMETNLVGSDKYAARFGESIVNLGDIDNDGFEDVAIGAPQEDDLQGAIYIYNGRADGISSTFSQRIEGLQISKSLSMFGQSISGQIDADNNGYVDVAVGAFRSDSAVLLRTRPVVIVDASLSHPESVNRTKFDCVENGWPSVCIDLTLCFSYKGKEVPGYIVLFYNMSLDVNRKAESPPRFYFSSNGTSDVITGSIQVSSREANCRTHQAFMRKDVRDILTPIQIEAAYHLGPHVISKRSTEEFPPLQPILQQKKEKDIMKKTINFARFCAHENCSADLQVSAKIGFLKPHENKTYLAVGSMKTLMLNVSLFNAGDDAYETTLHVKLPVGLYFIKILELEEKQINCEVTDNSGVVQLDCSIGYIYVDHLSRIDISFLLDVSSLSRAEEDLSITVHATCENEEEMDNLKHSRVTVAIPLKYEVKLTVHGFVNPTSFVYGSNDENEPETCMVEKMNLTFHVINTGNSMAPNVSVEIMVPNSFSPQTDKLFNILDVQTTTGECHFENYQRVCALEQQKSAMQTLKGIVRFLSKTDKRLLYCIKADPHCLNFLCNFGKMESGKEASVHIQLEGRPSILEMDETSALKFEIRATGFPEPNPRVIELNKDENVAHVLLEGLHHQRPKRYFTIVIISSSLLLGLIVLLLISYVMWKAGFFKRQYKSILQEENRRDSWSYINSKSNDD
T1 sequence (P05556 21-798): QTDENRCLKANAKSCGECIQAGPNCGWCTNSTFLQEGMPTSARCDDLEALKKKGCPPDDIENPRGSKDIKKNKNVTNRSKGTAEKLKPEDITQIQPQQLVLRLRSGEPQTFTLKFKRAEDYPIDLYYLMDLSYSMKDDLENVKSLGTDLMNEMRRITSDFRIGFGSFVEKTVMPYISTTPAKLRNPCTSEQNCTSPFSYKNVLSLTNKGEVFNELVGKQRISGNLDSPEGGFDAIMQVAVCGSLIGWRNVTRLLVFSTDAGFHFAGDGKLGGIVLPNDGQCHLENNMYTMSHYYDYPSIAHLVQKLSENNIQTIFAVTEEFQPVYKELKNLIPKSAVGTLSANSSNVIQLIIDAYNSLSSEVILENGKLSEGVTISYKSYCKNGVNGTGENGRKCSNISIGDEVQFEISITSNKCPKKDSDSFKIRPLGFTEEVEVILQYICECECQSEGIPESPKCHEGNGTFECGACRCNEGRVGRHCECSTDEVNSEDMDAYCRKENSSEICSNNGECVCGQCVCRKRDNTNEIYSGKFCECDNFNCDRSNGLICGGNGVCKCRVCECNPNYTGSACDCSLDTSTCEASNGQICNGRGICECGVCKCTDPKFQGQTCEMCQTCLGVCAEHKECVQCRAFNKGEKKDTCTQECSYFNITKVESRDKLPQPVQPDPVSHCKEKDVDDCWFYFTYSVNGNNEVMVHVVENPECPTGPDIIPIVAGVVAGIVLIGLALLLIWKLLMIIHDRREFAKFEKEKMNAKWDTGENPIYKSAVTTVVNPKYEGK
As to the kind of experiment: U937/VCAM-1 cell adhesion test (adhesion of U937 cells to hVCAM-1(1-3)-IgG). In kind it is cell-based. Particulars: inhibition of adhesion of human U937 cells (ATCC CRL 1593) to hVCAM-1(1-3)-IgG. The source says: As a test method for the activity of the compounds of the formula I on the interaction between VCAM-1 and VLA-4, an assay is used which is specific for this interaction. The cellular binding components, i.e. the VLA-4-integrins, are offered in their natural form as surface molecules on human U937 cells (ATCC CRL 1593), which belong to the group of leucocytes. As specific binding components, recombinant soluble fusion proteins, prepared by genetic engineering and consisting of the extracytoplasmic domains of human VCAM-1 and the constant region of a human immunoglobulin of the subclass IgG1, are used.
Assay for the Measurement of the Adhesion of U937 Cells (ATCC CRL 1593) to hVCAM-1(1-3)-IgG
1. Preparation of Human VCAM-1(1-3)-IgG and Human CD4-IgG
A genetic construct for the expression of the extracellular domains of human VCAM-1 was employed, associated with the genetic sequence of the heavy chain of human immunoglobulin IgG1 (hinge, CH2 and CH3 regions), from Dr. Brian Seed, Massachusetts General Hospital, Boston, USA. The soluble fusion protein hVCAM-1(1-3)-IgG contained the throe amino-terminal extracellular immunoglobulin-like domains of human VCAM-1 (Damle and Aruffo, Proc. Natl. Acad. Sci. USA 1991, 88, 6403). CD4-IgG (Zettlmeissl et al., DNA and Cell Biology 1990, 9, 347) served as a fusion protein for negative controls. The recombinant proteins were expressed as soluble proteins after DEAE/dextran-mediated DNA-transfection in COS cells (ATCC CRL1651) according to standard procedures (Ausubel et al., Current protocols in molecular biology, John Wiley & Sons, Inc., 1994).
2. Assay for the Measurement of the Adhesion of U937 Cells to hVCAM-1(1-3)-IgG
2.1 96-well microtiter test plates (Nunc Maxisorb) were incubated at room temperature for 1 hour with 100 μl/well of a goat-anti-human IgG antibody solution (10 μg/ml in 50 mM Tris, pH 9.5). After removing the antibody solution, washing was carried out once with PBS.
2.2 150 μl/well of a blocking buffer (1% BSA in PBS) was incubated on the plates at room temperature for 0.5 hour. […]
`CC1(c2ccc(C(N)=O)cc2)C(=O)N(CC(=O)N[C@@H](CC(=O)O)C(=O)N[C@H](C(=O)O)c2ccccc2)C(=O)N1Cc1ccccc1` (stereo partly drawn) [Example 1] returned a half-inhibitory concentration (IC50) of 7.5 µM.

In turn, `CC1(c2ccc(C3=NCCN3)cc2)C(=O)N(CC(=O)N[C@@H](CC(=O)O)C(=O)N[C@H](C(=O)O)c2ccccc2)C(=O)N1Cc1ccc2ccccc2c1` (stereo partly drawn) [Example 2, ((R,S)-4-(4-(4,5-Dihydro-2-imidazolyl)phenyl)-3-(2-naphthylmethyl)-4-methyl-2,5-dioxoimidazolidin-1-yl)acetyl-L-aspartyl-L-phenylglycine] displayed an IC50 of 14.5 µM.

`CC1(c2ccc(C3=NCCN3)cc2)C(=O)N(CC(=O)NC[C@H](NC(=O)OCC23CC4CC(CC(C4)C2)C3)C(=O)O)C(=O)N1Cc1ccc2ccccc2c1` (stereo partly drawn) [Example 3, (S)-3-(((R,S)-4-(4-(4,5-Dihydro-2-imidazolyl)phenyl)-3-(2-naphthylmethyl)-4-methyl-2,5-dioxoimidazolidin-1-yl)acetylamino)-2-(1-adamantyl-methyloxycarbonylamino)propionic Acid] yielded an IC50 of 40 µM.
